How the values were obtained:
p75, MPZ, NRG1, and Erβ = assay: Neuroprotection biomarker panel by ELISA in 3D EngNT (all markers together); type: cell-based, rat; conditions: for all markers (p75, MPZ, NRG1, ERβ); GGF 200 ng/mL pretreatment
Protocol: (§1) The MPZ content in 3D EngNT cell lysates was determined using the Rat ELISA kit (MyBiosource, San Diego, CA, USA). A standard curve with a range of 0.06 to 18 ng/mL was used to express the concentration as a percentage of ng/mL.
3D EngNT cell lysates were subjected to the Rat NGFR ELISA kit (MyBiosource, San Diego, CA, USA) in accordance with the product specifications. Quantification was obtained through a standard curve ranging from 0.312 to 20 ng/mL.
ERβ concentrations in 3D EngNT lysates were measured using the Rat ERβ ELISA Kit (Cloud-Clone, Houston, TX, USA). The result was given as % ng/mL against a 0.312–20 ng/mL standard curve.

[1] = system: 3D EngNT (RSC96/PC12 co-culture); assay: MTT cell viability in 3D EngNT under demyelination (GGF 200 ng/mL); type: cell-based, rat; conditions: GGF 200 ng/mL pretreatment, 24 h with intestinal metabolites
Protocol: RSC96, a rat-derived Schwann cell line (purchased from ATCC), was cultured in Adv DMEM (Thermo Fisher Scientific, Rodano, MI, Italy) containing 1% penicillin-streptomycin, 2 mM L-glutamine, and 5% FBS [46]. The culture was maintained at 37 °C with 5% CO2 and 95% humidity in a 37 °C incubator. Experiments utilised RSC96 cells from passages 10 to 15, which were sub-cultured two or three times weekly.
The ATCC rat neural PC12 cell line was cultured in Advanced RPMI-1640 medium (Thermo Fisher Scientific, Rodano, MI, Italy). This medium contained 5% FBS, 5% horse serum (HS; Merck Life Science, Rome, Italy), and 2 mM glutamine. Cultures were maintained at 37 °C in a 5% CO2 environment with 95% humidity, ensuring they remained below confluency. Assays utilised cells between passages 3 and 13 [47]. PC12 cells are commonly used for in vitro neuroprotective chemical screening, being a suitable neuronal cell line. […]
A standard method described in the literature was employed to assess cell survival after each stimulation using the MTT-based In Vitro Toxicology Assay Kit (Merck Life Science, Rome, Italy). All solubilised materials, whether treated or untreated, were measured at 570 nm with a 690 nm correction using a spectrometer (Infinite 200 Pro MPlex, Tecan, Männedorf, Switzerland). […]

MPZ = MPZ ELISA in 3D EngNT lysates; type: cell-based, rat; conditions: GGF 200 ng/mL pretreatment, 24 h
Protocol: as §1

[2] = system: NaV 1.7, NaV 1.8, and GABA; assay: Nociception-related biomarker panel by ELISA in 3D EngNT (all markers together); type: cell-based, rat; conditions: GGF 200 ng/mL pretreatment, 24 h
Protocol: Quantification was obtained through a standard curve ranging from 6 to 400 pg/mL. NaV 1.7 was quantified on 3[…] lysates using the SCN9A/Nav1.7 ELISA Kit (LifeSpan BioSciences, Lynnwood, WA, USA). OD was correlated with the standards' concentration (0.312 to 20 ng/mL) using a standard curve. On 3[…] lysates, the Mouse Sodium Channel Protein Type 10 Subunit Alpha (SCN10A) ELISA Kit (MyBiosource, San Diego, CA, USA) quantified NaV 1.8 [64]. Comparing colour intensity (OD) to standard concentration produced a standard curve.

ERβ = ERβ ELISA in 3D EngNT lysates; type: cell-based, rat; conditions: GGF 200 ng/mL pretreatment, 24 h
Protocol: ERβ concentrations in 3[…] lysates were measured using the Rat ERβ ELISA Kit (Cloud-Clone, Houston, TX, USA).

[3] = system: 3D EngNT (RSC96/PC12 co-culture); assay: ROS production (cytochrome C reduction) in 3D EngNT; type: cell-based, rat; conditions: GGF 200 ng/mL pretreatment, 24 h with intestinal metabolites
Protocol: In the EngNT in vitro model, superoxide anion release was assessed by measuring cytochrome C reduction. Superoxide dismutase and cytochrome C (from Merck Life Science, Rome, Italy) were incubated for 30 min with both treated and untreated cells. Absorbance at 550 nm was recorded using a spectrometer (Infinite 200 Pro MPlex, Tecan, Männedorf, Switzerland). The results, averaged over five tests performed in triplicate, are expressed as the mean ± standard deviation (%) of lower cytochrome C nanomoles per microgram of protein relative to the control (0 line).

p75 = p75 (NGFR) ELISA in 3D EngNT lysates; type: cell-based, rat; conditions: GGF 200 ng/mL pretreatment, 24 h
Protocol: 3[…] lysates were subjected to the Rat NGFR ELISA kit (MyBiosource, San Diego, CA, USA) in accordance with the product specifications. Quantification was obtained through a standard curve ranging from 0.312 to 20 ng/mL.

NRG1 = conditions: 3D EngNT, GGF 200 ng/mL pretreatment, 24 h
Protocol: Starting on day 14 of maturation, GGF at 200 ng/mL was added to the EngNT 3D model to damage peripheral neurons and remove substantial myelin [51]. 3D EngNT was then treated for 24 h with the intestinal metabolite of each previously collected sample.
All ELISA analyses were performed according to the manufacturers’ instructions using specific commercial kits for each biomarker. Absorbance was measured at 450 nm using a microplate reader (Infinite 200 ProMPlex, Tecan, Männedorf, Switzerland). For each assay, a standard calibration curve (range depending on the specific kit) was used to determine analyte concentrations.
NRG1 levels in 3D EngNT supernatants were measured using the FineTest NRG1 Rat ELISA Kit (Wuhan, China) [62].

TNFα = TNFα ELISA in 3D EngNT supernatants; type: cell-based, rat; conditions: GGF 200 ng/mL pretreatment, 24 h
Source text: TNF-α levels in 3D EngNT supernatants were quantified using the TNF-α ELISA Kit (Merck Life Science, Rome, Italy). The results were obtained using a calibration curve (range: 24.58–6000 pg/mL).

| Molecule | reduction of marker levels compared to the control condition (p75, MPZ, NRG1, and Erβ) | cell viability (result in words) [1] | MPZ levels (result in words) (MPZ) | nociception-related markers NaV 1.7, NaV 1.8, GABA (result in words) [2] | Erβ levels (result in words) (ERβ) | ROS production, antioxidant response (result in words) [3] | p75 signal (result in words) (p75) | NRG1 levels (result in words) (NRG1) | TNFα production (result in words) (TNFα) | permeability compared to the control (Caco-2 cells; at 4 h, fluorescent tracer, normalised to control) [%] | permeability (result in words) (Caco-2 cells; individual agents, 1–6 h) |
| --- | --- | --- | --- | --- | --- | --- | --- | --- | --- | --- | --- |
| glial growth factor 2 [GGF] | about 10% |  |  |  |  |  |  |  |  |  |  |
| N[C@@H](CCC(=O)N[C@@H](CS)C(=O)NCC(=O)O)C(=O)O [GSH, Glutathione] |  | almost as strong as ALA and vitamin B6 | stronger, more noticeable impact than ALA and vitamin B6 | neuroprotective and hypothetically anti-nociceptive effects | comparable to ALA and better than vitamin B6 | more pronounced reduction | comparable to ALA | more biological effects than ALA and vitamin B6 alone |  |  |  |
| CC(=O)N[C@@H](CS)C(=O)O [NAC, N-Acetylcysteine] |  |  | stronger, more noticeable impact than ALA and vitamin B6 | neuroprotective and hypothetically anti-nociceptive effects | comparable to ALA and better than vitamin B6 | greatest effect compared to ALA and vitamin B6 |  |  | effect slightly inferior to ALA | 51 | highest permeability of all agents |
| O=c1ccn([C@@H]2O[C@H](COP(=O)(O)O)[C@@H](O)[C@H]2O)c(=O)[nH]1 [UMP, Uridine monophosphate] |  | effects even more similar |  | neuroprotective and hypothetically anti-nociceptive effects |  |  | comparable to ALA |  | most pronounced reduction, superior to ALA |  |  |
